Reference: patent publication US12396459B2, “Synergistically effective herbicide composition comprising pyridate and at least one defined 4-HPPD inhibitor” (BELCHIM CROP PROTECTION NV, priority 2018, dated 2025)

Key:
Format in all cases: in vivo
Veronica persica = experiment: Field trial post-emergence in maize: VERPE; conditions: for herbicidal effect (h.e.): g a.c./ha: PYR 300, MES 100, PYR + MES 300 + 90
Procedure: (§1) Herbicidal activity of herbicide compositions according to the first aspect of the present invention with regard to different types of unwanted vegetation was determined during trials performed on test fields (field trials). Individual compositions comprising pyridate and individual compositions comprising a defined 4-HPPD inhibitor are compared with a herbicide composition according to the invention comprising both pyridate and a defined 4-HPPD inhibitor. The expected activity of the combination of the active compounds pyridate and a defined 4-HPPD inhibitor is calculated according to above mentioned calculation method by Colby, in order to evaluate a synergistic effect between pyridate and a defined 4-HPPD inhibitor.
(§2) Herbicidal activity was determined by applying herbicide compositions on emerged unwanted vegetation on fields where maize was cultivated. Pyridate and a defined 4-HPPD inhibitor were applied as a tank mixture by mixing these active compounds prior to use in a spray tank. The corresponding mixture was in the form of a spray liquor. Besides, spray liquors of individual compositions comprising pyridate and of individual compositions comprising a defined 4-HPPD inhibitor were used. Test plants of unwanted vegetation with a growth stage corresponding to BBCH 10-18 (according to the extended BBCH-scale) were sprayed with the active compound preparations such that particular desired amounts of active compounds are applied per unit area. Spray liquor was diluted with water to arrive at an application volume of 50 to 450 L/ha. At a specified number of days after application (DAA), the degree of damage to the unwanted vegetation is rated in % of plants of unwanted vegetation that were killed, which was assessed by visually controlling the plants.

Polygonum aviculare = experiment: Field trial post-emergence in maize: POLAV
Procedure: as §1, §2
(§3) Example 1 concerns a herbicide composition comprising a combination of pyridate and mesotrione, which was applied post-emergence on unwanted vegetation on a field where maize was cultivated, according to the test conditions mentioned above.

Anagallis arvensis = experiment: Field trial post-emergence in maize: ANGAR; conditions: 7-14 DAA; # = 2; g a.c./ha: PYR 300, MES 100, PYR + MES 300 + 90
Procedure: as §1
(§4) Herbicidal activity was determined by applying herbicide compositions on emerged unwanted vegetation on fields where maize was cultivated. Pyridate and a defined 4-HPPD inhibitor were applied as a tank mixture by mixing these active compounds prior to use in a spray tank. The corresponding mixture was in the form of a spray liquor. […] At a specified number of days after application (DAA), the degree of damage to the unwanted vegetation is rated in % of plants of unwanted vegetation that were killed, which was assessed by visually controlling the plants.

Echinochloa crus-galli = experiment: Examples 6-8 herbicidal effect: ECHCG; conditions: 7 DAA
Viola arvensis = experiment: Field trial post-emergence in maize: VIOAR
Procedure: as §1, §2, §3

Digitaria sanguinalis = experiment: Examples 6-8 herbicidal effect: DIGSA; conditions: 7 DAA
Galinsoga parviflora = experiment: Field trial post-emergence in maize: GASPA; conditions: 31-48 DAA; # = 3; g a.c./ha: PYR 300, MES 100, PYR + MES 300 + 90
Procedure: as §1, §4

Abutilon theophrasti = experiment: Field trial post-emergence in maize: ABUTH; conditions: 31-48 DAA; # = 2; g a.c./ha: PYR 300, MES 100, PYR + MES 300 + 90
Procedure: as §1, §4

Stellaria media = experiment: Field trial post-emergence in maize: STEME
Procedure: as §1, §2

[1] = tested on: Tripleurospermum inodorum; experiment: Field trial post-emergence in maize: MATIN; conditions: for herbicidal effect (h.e.): # = 1, g a.c./ha: PYR 300, MES 100, PYR + MES 300 + 90
Procedure: as §1, §2

Sonchus oleraceus = experiment: Field trial post-emergence in maize: SONOL; conditions: # = 1, g a.c./ha: PYR 300, MES 100, PYR + MES 300 + 90
Procedure: as §1, §2

Rumex obtusifolius = experiment: Field trial post-emergence in maize: RUMOB
Procedure: as §1, §2, §3

Geranium sp. = experiment: Field trial post-emergence in maize: GERSS; conditions: # = 1, g a.c./ha: PYR 300, MES 100, PYR + MES 300 + 90
Procedure: as §1, §2

Solanum nigrum = experiment: Field trial post-emergence in maize: SOLNI; conditions: for herbicidal effect (h.e.): g a.c./ha: PYR 300, MES 100, PYR + MES 300 + 90
Procedure: as §1, §2

Lamium purpureum = experiment: Field trial post-emergence in maize: LAMPU
Procedure: as §1, §2, §3

Cirsium arvense = experiment: Field trial post-emergence in maize: CIRAR; conditions: # = 1, g a.c./ha: PYR 300, MES 100, PYR + MES 300 + 90
Procedure: as §1, §2

Thlaspi arvense = experiment: Field trial post-emergence in maize: THLAR; conditions: # = 1, g a.c./ha: PYR 300, MES 100, PYR + MES 300 + 90
Procedure: as §1, §2

[2] = tested on: unwanted vegetation (UVEG); experiment: Field trials Examples 1-5 (incl. Table 1), post-emergence on unwanted vegetation in maize; conditions: 14-20 DAA
Procedure: as §1, §2

[3] = g a.c./ha: MES 50, PYR + SMO 300 + 800
[4] = g a.c./ha: MES 80, PYR + MES 300 + 50

SMILES: CS(=O)(=O)c1ccc(C(=O)C2C(=O)CCCC2=O)c([N+](=O)[O-])c1 [MES, 2-(4-methylsulfonyl-2-nitrobenzoyl) cyclohexane-1,3-dione]
- herbicidal effect (h.e.) (Veronica persica; 7-14 DAA, # = 4): 91%
- herbicidal effect (h.e.) (Veronica persica; 31-48 DAA, # = 5): 93%
- MES h.e. (Veronica persica; VERPE 14-20 DAA 45 g a.c./ha): 20%
- MES h.e. (Veronica persica; VERPE 14-20 DAA 90 g a.c./ha): 75%
- MES h.e. (Veronica persica; VERPE 14-20 DAA 135 g a.c./ha): 70%
- MES h.e. (Veronica persica; VERPE 24-31 DAA 45 g a.c./ha): 10%
- MES h.e. (Veronica persica; VERPE 24-31 DAA 90 g a.c./ha): 55%
- MES h.e. (Veronica persica; VERPE 24-31 DAA 135 g a.c./ha): 60%
- MES h.e. (Polygonum aviculare; POLAV 14-20 DAA 45 g a.c./ha): 61%
- MES h.e. (Polygonum aviculare; POLAV 14-20 DAA 90 g a.c./ha): 76%
- MES h.e. (Polygonum aviculare; POLAV 24-31 DAA 90 g a.c./ha): 58%
- herbicidal effect (h.e.) (Anagallis arvensis): 98%
- herbicidal effect (h.e.) (Echinochloa crus-galli; [3]): 70%
- herbicidal effect (h.e.) (Echinochloa crus-galli; [4]): 73%
- MES h.e. (Viola arvensis; VIOAR 14-20 DAA 45 g a.c./ha): 84%
- MES h.e. (Viola arvensis; VIOAR 14-20 DAA 90 g a.c./ha): 95%
- MES h.e. (Viola arvensis; VIOAR 14-20 DAA 135 g a.c./ha): 98%
- herbicidal effect (h.e.) (Digitaria sanguinalis; [3]): 95%
- herbicidal effect (h.e.) (Digitaria sanguinalis; [4]): 92%
- herbicidal effect (h.e.) (Galinsoga parviflora): 97%
- herbicidal effect (h.e.) (Abutilon theophrasti): 91%
- herbicidal effect (h.e.) (Stellaria media; 18-28 DAA, # = 4, g a.c./ha: PYR 300, MES 100, PYR + MES 300 + 90): 98%
- MES h.e. (Stellaria media; STEME 14-20 DAA 45 g a.c./ha): 78%
- MES h.e. (Stellaria media; STEME 14-20 DAA 90 g a.c./ha): 93%
- MES h.e. (Stellaria media; STEME 14-20 DAA 135 g a.c./ha): 93%
- MES h.e. (Stellaria media; STEME 24-31 DAA 45 g a.c./ha): 70%
- MES h.e. (Stellaria media; STEME 24-31 DAA 90 g a.c./ha): 87%
- MES h.e. (Stellaria media; STEME 24-31 DAA 135 g a.c./ha): 93%
- herbicidal effect (h.e.) ([1]; 7-14 DAA): 77%
- herbicidal effect (h.e.) ([1]; 18-28 DAA): 78%
- herbicidal effect (h.e.) ([1]; 31-48 DAA): 80%
- MES h.e. ([1]; MATIN 24-31 DAA 45 g a.c./ha): 80%
- herbicidal effect (h.e.) (Sonchus oleraceus; 7-14 DAA): 90%
- herbicidal effect (h.e.) (Sonchus oleraceus; 18-28 DAA): 54%
- herbicidal effect (h.e.) (Sonchus oleraceus; 31-48 DAA): 41%
- MES h.e. (Rumex obtusifolius; RUMOB 14-20 DAA 45 g a.c./ha): 87%
- MES h.e. (Rumex obtusifolius; RUMOB 14-20 DAA 90 g a.c./ha): 95%
- MES h.e. (Rumex obtusifolius; RUMOB 14-20 DAA 135 g a.c./ha): 95%
- herbicidal effect (h.e.) (Geranium sp.; 7-14 DAA): 44%
- herbicidal effect (h.e.) (Geranium sp.; 18-28 DAA): 41%
- herbicidal effect (h.e.) (Geranium sp.; 31-48 DAA): 31%
- herbicidal effect (h.e.) (Solanum nigrum; 18-28 DAA, # = 7): 91%
- herbicidal effect (h.e.) (Solanum nigrum; 31-48 DAA, # = 6): 93%
- MES h.e. (Solanum nigrum; SOLNI 14-20 DAA 45 g a.c./ha): 95%
- MES h.e. (Lamium purpureum; LAMPU 14-20 DAA 45 g a.c./ha): 93%
- MES h.e. (Lamium purpureum; LAMPU 14-20 DAA 90 g a.c./ha): 98%
- MES h.e. (Lamium purpureum; LAMPU 14-20 DAA 135 g a.c./ha): 99%
- MES h.e. (Lamium purpureum; LAMPU 24-31 DAA 45 g a.c./ha): 89%
- MES h.e. (Lamium purpureum; LAMPU 24-31 DAA 90 g a.c./ha): 95%
- herbicidal effect (h.e.) (Cirsium arvense; 7-14 DAA): 58%
- herbicidal effect (h.e.) (Cirsium arvense; 31-48 DAA): 78%
- herbicidal effect (h.e.) (Thlaspi arvense; 7-14 DAA): 76%
- herbicidal effect (h.e.) (Thlaspi arvense; 18-28 DAA): 97%
- MES h.e. (%) ([2]; VIOAR (Viola arvensis), # = 3, first VIOAR block (r259-264), MES 135 g a.c./ha): 98%
- MES h.e. (%) ([2]; VIOAR, # = 3, second VIOAR block (r265-272), MES 45 g a.c./ha): 70%
- MES h.e. (%) ([2]; VIOAR, # = 3, second VIOAR block (r265-272), MES 90 g a.c./ha): 84%
- MES h.e. (%) ([2]; VIOAR, # = 3, second VIOAR block (r265-272), MES 135 g a.c./ha): 87%
